Laboratory results published in patent US11951167B2, “Targeted liposomes” (GEORGETOWN UNIVERSITY, priority 2012, dated 2024).

Columns and labels:
[1] = tested on: U87MG-Luc xenograft brain tumors; experiment: Intracranial tumor growth (BLI, MRI), scL-p53 plus TMZ; assay type: in vivo, nude mice; details: TMZ 5.0 mg/kg, scL-p53 30 ug DNA/mouse, i.v. 2x/week, 10 injections
Experimental: An experiment was performed to examine tumor growth inhibition induced by the sensitization of IC brain tumors to TMZ by systemic administration of scL-p53 prepared as described in U.S. Pat. No. 7,780,882. U87MG-Luc xenograft brain tumors were induced in nude mice by intracranially inoculating U87MG-luc cells. This cell line, obtained from Caliper Life Sciences, has been modified to stably express the Luciferase gene. 10 days post-inoculation, tumor-bearing animals were i.v. tail vein injected with TMZ alone (5.0 mg/kg/injection), scL-p53 alone (30 ug DNA/mouse/injection) or TMZ in combination with scL-p53. As a control, one group received PBS (vehicle). All i.v. injections were administered 2×/week to a total of 10 injections. To assess tumor response, bioluminescence imaging (BLI) was performed using IVIS® Imaging System's Xenogen. FIG. 24 is a comparison of in vivo anti-tumor efficacy of the various groups. Bioluminescence signals which correlate to tumor size are shown in a color map. Red color (at the top of the scale bar): the stronger signal, Violet color (at the bottom of the scale bar): the weaker signal. […] The horizontal bar indicates the duration of treatment (Last treatment=Day 24).
To confirm the bioluminescence findings, the mice were also imaged by MRI, without contrast agent, before and after the mice received 3 weeks of treatment. […]

[2] = tested on: U87MG-Luc xenograft brain tumors; experiment: Survival of mice with intracranial GBM tumors (Kaplan-Meier); assay type: in vivo, nude mice
Experimental: U87MG-Luc xenograft brain tumors were induced in nude mice as described above. 10 days post-inoculation, tumor-bearing animals were i.v. tail vein injected with TMZ alone (25.0 mg/kg/injection), scL-p53 alone (30 ug DNA/mouse/injection) (prepared as described in U.S. Pat. No. 7,780,882) or TMZ in combination with scL-p53. As a control, one group received PBS (vehicle). All i.v. injections were administered 2×/week to a total of 10 injections. The animals were monitored 2-3 times/week and euthanized when moribund. The gray bar in FIG. 27 indicates the duration of treatment.

[3] = tested on: glioblastoma multiforme / anaplastic astrocytoma; details: cited from earlier work

SMILES: Cn1nnc2c(C(N)=O)ncn2c1=O [TMZ, temozolomide]
- IC tumor growth during treatment (BLI) [1]: some minimal effect
- day by which all of the mice succumbed to their tumor ([2]; TMZ 25.0 mg/kg): ~155 days
- Median Survival ([2]; TMZ 25.0 mg/kg, scL-p53 30 ug DNA/mouse, i.v. 2x/week, 10 injections): 112 days
- Survival Prolongation (%) ([2]; ratio of the median survival of untreated GBM xenografts): 348%
- AA patients who do not benefit from TMZ ([3]; human, in vivo): 50%
- GBM patients who do not benefit from TMZ ([3]; human, in vivo): 60-75%
- median increase in survival compared to radiation alone ([3]; subset of GBM patients): 2.5 months
